Data taken from publication PMC9025336 (Antibiotics, 2022).
Values after ≈ are worked out from the molar mass of the structure shown. Peptide text beside a SMILES is read from it. * marks the point of attachment. Orn(α-tetramethylguanidino) = CN(C)C(=N[C@@H](CCCN)C(=O)*)N(C)C

Legend:
[1] = molecular target: BW25113 ribosome extract, ribosomal binding site of Onc112; assay: Fluorescence polarization competition against cf-Onc112 (Ki); set-up: species or system Escherichia coli; conditions: unlabeled PrAMP against cf-labeled Onc112, calculated from IC50, 95% confidence interval in brackets
Method: (§1) E. coli BW25113 and E. coli Rosetta pLysS were cultivated in LB medium and harvested at an OD600 of ~4 by centrifugation (5000× g, 30 min, 4 °C). The cell pellets were washed by resuspension in ribosome preparation buffer (20 mmol/L Hepes-KOH, 6 mmol/L MgCl2, 30 mmol/L NH4Cl, pH 7.6, 4°C) and subsequent centrifugation (5000× g, 30 min, 4 °C). Cell pellets were suspended in ribosome preparation buffer ([…]) containing freshly added 2-mercapotethanol (4 mmol/L). Lysozyme was added to the resuspended cells and incubated on ice for 30 min. The cell suspension was disrupted six times using a FastPrep-24^TM 5G instrument (MP Biomedicals, Solon, OH, USA) with BigPrep 50 mL setting (40 s, 4.0 m/s), incubated with DNase I (5 mL/L) on ice for one hour and centrifuged (16,000× g, 30 min, 4 °C). The cell debris was removed from the supernatant by centrifugation (32,000× g, 60 min, 4 °C), and the supernatant was centrifuged again (165,000× g, 17 h, 4 °C). The pellet was resuspended in ribosome preparation buffer (0.1 mL per g cell pellet) to obtain the 70S ribosome extract and stored at −80 °C. The ribosome concentration was estimated by recording the absorbance at 260 nm (1 AU for a ribosome concentration of 28 nmol/L). The molecular weight of the 70S E. coli ribosome was assumed to be 2.3 MDa.
(§2) Ki was determined for ribosome extracts using cf-labeled and unlabeled peptides in ribosome preparation buffer. Black 384-well plates were prepared as described above. Unlabeled peptides or antibiotics (20 µL, 656 µmol/L) were added and 2-fold serially diluted in 23 wells in ribosome preparation buffer. A ribosome solution was prepared by adjusting the ribosome concentration to ~90% of the upper Kd plateau obtained for the cf-labeled peptide to be studied and added to each well (10 µL). […] The fluorescence polarization was measured on a PARADIGMTM microplate reader in the top read position (λexc = 485 nm, λem = 535 nm) in triplicate on at least two different days. […] Inhibition constants, Ki, were calculated as described by Mathias and Jung.

[2] = test system: E. coli BL21 (DE3) sbmA::Tn10^Cm; assay type: cell-based, Escherichia coli
Method: The minimal inhibitory concentrations (MIC) were determined at least twice in triplicate using a liquid broth microdilution assay in sterile 96-well plates and a total volume of 100 μL per well. Aqueous peptide solutions were serially 2-fold diluted in 25% MHBII or 33% TSB medium in a volume of 50 µL. An overnight culture was diluted in 25% MHBII or 33% TSB medium to 1.5 × 10^7 CFU/mL, and an aliquot of 50 μL was added to each well. The final cell count in each well was 7.5 × 10^6 CFU/mL. The plates were incubated at 37 °C for 20 ± 2 h. The turbidity of each well was measured at a wavelength of 600 nm. The MIC was defined as the lowest peptide concentration where the turbidity was identical to medium only.
E. coli strain BL21(DE3) was randomly mutagenized by Tn10 insertion using the lambda phage lysate λNK1324 carrying a chloramphenicol resistance and grown on LB agar plates in the presence of chloramphenicol (15 µg/mL) at 30 °C overnight. The resistant colonies were transferred to 25% MHBII agar plates containing Api137 (32 or 64 µg/mL) and incubated again at 37 °C overnight. Genomic DNA was isolated by a Monarch® Genomic DNA purification kit (New England Biolabs, Frankfurt am Main, Germany) from the presumed double-resistant strains, and the sequences flanking the transposon insertion were determined by arbitrary primed PCR using arbitrary primer ARB6 and Tn10 transposon-specific primer IS10-R complementary to the IS10 element of Tn10 transposon. The first round of amplification included six cycles of denaturation (95 °C, 30 s), annealing (30 °C, 30 s), and extension (72 °C, 90 s), followed by 30 cycles of denaturation (95 °C, 30 s), annealing (45°C, 30 s), and extension (72 °C, 2 min), as well as a final extension (72 °C, 6 min). The second round of amplification used arbitrary primer ARB2 and primer IS10-R. The PCR consisted of 30 cycles of denaturation (95 °C, 30 s), annealing (52 °C, 30 s), and extension (72 °C, 2 min), followed by a final extension step (72 °C, 6 min). PCR products were purified with the NucleoSpin® Gel and a PCR cleanup kit (Macherey-Nagel, Düren, Germany) and sequenced using primer IS10-R (Eurofins MWG Operon, Ebersberg, Germany), and the corresponding protein was identified in a sequence database (UniProt and NCBI, 2021).

[3] = molecular target: BW25113 ribosome extract, ribosomal binding site of Api137; assay: Fluorescence polarization competition against cf-Api137 (Ki); set-up: species or system Escherichia coli; conditions: unlabeled PrAMP against cf-labeled Api137, calculated from IC50, 95% confidence interval in brackets
Method: as §1, §2

| SMILES | Ki [1] [nM] | MIC, 25% MHBII ([2]; BL21 (DE3) sbmA::Tn10^Cm, 25% MHBII containing IPTG (0.1 mmol/L)) [µg/mL] | MIC, 33% TSB ([2]; BL21 (DE3) sbmA::Tn10^Cm, 33% TSB containing IPTG (0.1 mmol/L)) [µg/mL] | Ki [3] [nM] | MIC in the E. coli BL21 sbmA::Tn10^Cm strain ([2]; medium not stated (Table 3: 25% MHBII and 33% TSB)) [µg/mL] |
| --- | --- | --- | --- | --- | --- |
| CC[C@H](C)[C@H](NC(=O)[C@H](Cc1ccc(O)cc1)NC(=O)[C@@H](NC(=O)[C@@H]1CCCN1C(=O)[C@H](CCCNC(=N)N)NC(=O)[C@H](CC(N)=O)NC(=O)[C@H](CC(N)=O)NC(=O)[C@H](CCCN)N=C(N(C)C)N(C)C)C(C)C)C(=O)N1CCC[C@H]1C(=O)N[C@@H](CCCNC(=N)N)C(=O)N1CCC[C@H]1C(=O)N[C@@H](CCCNC(=N)N)C(=O)N1CCC[C@H]1C(=O)N1CCC[C@H]1C(=O)N[C@@H](Cc1c[nH]cn1)C(=O)N1CCC[C@H]1C(=O)N[C@@H](CCCNC(=N)N)C(=O)N[C@@H](CC(C)C)C(=O)O [Api137] ({Orn(α-tetramethylguanidino)}-NNRPVYIPRPRPPHPRL-OH) | 219 | 16 (≈ 6.98 µM) | 16 (≈ 6.98 µM) | 2 | – |
| CC[C@H](C)[C@H](NC(=O)[C@@H]1CCCN1C(=O)[C@H](CCCNC(=N)N)NC(=O)[C@H](CC(N)=O)NC(=O)[C@H](CC(N)=O)NC(=O)CN)C(=O)N[C@@H](Cc1ccc(O)cc1)C(=O)N[C@H](C(=O)N1CCC[C@H]1C(=O)N[C@@H](CCCNC(=N)N)C(=O)N1CCC[C@H]1C(=O)N[C@@H](CCCNC(=N)N)C(=O)N1CCC[C@H]1C(=O)N1CCC[C@H]1C(=O)N[C@@H](Cc1c[nH]cn1)C(=O)N1CCC[C@H]1C(=O)N[C@@H](CCCNC(=N)N)C(=O)N1CCC[C@H]1C(=O)N[C@H](C(=O)N[C@@H](CCCNC(=N)N)C(=O)N[C@H](C(=O)O)C(C)C)[C@@H](C)CC)[C@@H](C)CC [Api805] (H-GNNRPIYIPRPRPPHPRPIRV-OH; N-terminus assumed) | 489 | – | – | 1070 | 128 |
